Assay results from PMC3292407 (The Journal of Neuroscience, 2012).
Where “and” joins values, the source holds several entries; their conditions need not be identical. Identical values can stand only once. Like-named read-outs stand apart in the source and are kept apart here.

How the values were obtained:
rats [1] = assay: Elevated-plus maze; format: in vivo, rat
rats [2] = assay: Pentylenetetrazol; format: in vivo, rat; details: PTZ 42 mg/kg
[3] = Plasma [EtOH] assay of two-bottle choice; format: in vivo, rat; details: E+D/water-group vs E/water-group, end of the 6th week
rats [4] = format: in vivo, rat; details: for EtOH consumption: 20% EtOH/water (E/water-group)
GABAAR α4 subunit [5] = assay: Western blot of total GABAAR α4 subunit in hippocampus 48 hr after withdrawal; format: in vivo, rat
GABAARs [6] = format: cell-based, rat
GABAAR α4 subunit [7] = format: cell-based, rat
GABAARs [8] = format: in vivo, rat; details: for Decay time / Frequency (HZ) / Rise time: baseline mIPSCs; for Itonic (pA) / mIPSC amplitude (pA) / mIPSC area (fC): baseline
GABAARs [9] = format: cell-based, rat; details: for Itonic (pA) / mIPSC amplitude (pA) / mIPSC area (fC) / Decay time / Frequency (HZ) / Rise time: DGCs of naive rats; for Decay time / Frequency (HZ) / Rise time: mIPSCs
rats [10] = assay: Loss of Righting Reflex
[11] = Plasma EtOH concentrations; format: in vivo, rat
[12] = 48 hr after DHM 1 mg/kg i.p. alone (D/W)
[13] = 48 hr withdrawal after EtOH 3 g/kg + DHM 1 mg/kg i.p. (E+D/W)
[14] = DHM 1 μM, cultured hippocampal neurons DIV13-14
[15] = D/W: 48 hr after DHM 1 mg/kg gavage
[16] = E+D/W: 48 hr after EtOH 5 g/kg + DHM 1 mg/kg gavage
[17] = DHM 3 μM in presence of EtOH 60 mM
[18] = DHM 0.3, 0.5, 1, 10 mg/kg co-injected i.p. with EtOH 3 g/kg
[19] = E/W: 48 hr after EtOH 5 g/kg gavage
[20] = bath EtOH 60 mM, DGCs of V/W-group rats
[21] = bath EtOH 60 mM, DGCs, naive rats

SMILES: O=C1c2c(O)cc(O)cc2O[C@H](c2cc(O)c(O)c(O)c2)[C@H]1O [DHM, (2R,3R)-3,5,7-trihydroxy-2-(3,4,5-trihydroxyphenyl)-2,3-dihydrochromen-4-one]
- Time in open and closed arms (EPM) (rats [1]; [12]): did not affect the time rats spent in either arm
- Time in open and closed arms (EPM) (rats [1]; 48 hr withdrawal after EtOH 3 g/kg + DHM 1 mg/kg i.p. (E+D/W), vs V/W-group): spent similar times
- PTZ-induced seizure duration (rats [2]; [12]): 0.6 ± 0.4 min
- PTZ-induced seizure duration (rats [2]; [13]): 1.7 ± 0.8 min
- Plasma [EtOH] [3]: significantly lower
- Preference to bottle containing E+D (rats [4]; E+D/water-group, 3rd vs 7th week): did not change this preference
- EtOH intake (rats [4]; EtOH+DHM 0.05 mg/ml/water (E+D/water-group), beginning of the 4th week): 2.6 ± 0.5 g/kg/day
- Total fluid consumption (rats [4]; between the 4 groups (E/water, E+D/water, D/water, water/water)): no significant differences in total fluid consumption
- Body weight (rats [4]; between the 4 groups at the end of the experiments): no significant difference in body weight
- Effect on total α4 subunit level (GABAAR α4 subunit [5]; hippocampus 48 hr after DHM 1 mg/kg i.p. alone (D/W)): had no effect on α4 subunit level
- Total α4 protein level (GABAAR α4 subunit [5]; hippocampus 48 hr after EtOH 3 g/kg + DHM 1 mg/kg i.p. (E+D/W)): 93.0 ± 21.0 % of control
- Itonic potentiation (GABAARs [6]; [14]): 194.9 ± 13.6 % of baseline
- mIPSC area potentiation (GABAARs [6]; [14]): 181.8 ± 9.2 % of baseline
- Effect on GABA concentration-response curve of GABAAR-currents (GABAARs [6]; DHM 0.3 and 1 μM co-applied with GABA, TTX present, DIV14): produced a left shift of the GABA concentration-response curve
- Effect on EtOH-induced increase in surface GABAAR α4 (GABAAR α4 subunit [7]; cultured neurons 24 hrs after EtOH 60 mM + DHM 0.1 μM (E+D)): prevented this increase
- Decay time (GABAARs [8]; [15]): 7.9 ± 1.2 ms
- Frequency (HZ) (GABAARs [8]; [15]): 13.2 ± 1.3 HZ
- Rise time (GABAARs [8]; [15]): 2.2 ± 0.3 ms
- Decay time (GABAARs [8]; [16]): 7.1 ± 0.6 ms
- Frequency (HZ) (GABAARs [8]; [16]): 12.4 ± 0.5 HZ
- Rise time (GABAARs [8]; [16]): 1.8 ± 0.3 ms
- Itonic (pA) (GABAARs [8]; [15]): 24.3 ± 2.9 pA
- mIPSC amplitude (pA) (GABAARs [8]; [15]): 28.5 ± 3.0 pA
- mIPSC area (fC) (GABAARs [8]; [15]): 621.5 ± 68.5 fC
- Itonic (pA) (GABAARs [8]; [16]): 30.0 ± 2.8 pA
- mIPSC amplitude (pA) (GABAARs [8]; [16]): 26.2 ± 2.1 pA
- mIPSC area (fC) (GABAARs [8]; [16]): 666.8 ± 34.1 fC
- mIPSC modulation by acute EtOH (GABAARs [8]; bath EtOH 60 mM, DGCs of E+D/W-group rats): mIPSC modulation was unchanged
- Itonic (pA) (GABAARs [9]; DHM 0.1 μM): 27.6 ± 1.4 pA
- mIPSC amplitude (pA) (GABAARs [9]; DHM 0.1 μM): 30.9 ± 2.9 pA
- mIPSC area (fC) (GABAARs [9]; DHM 0.1 μM): 637.1 ± 19.8 fC
- Decay time (GABAARs [9]; DHM 0.1 μM): 7.5 ± 0.5 ms
- Frequency (HZ) (GABAARs [9]; DHM 0.1 μM): 14.0 ± 0.6 HZ
- Rise time (GABAARs [9]; DHM 0.1 μM): 2.0 ± 0.2 ms
- Itonic (pA) (GABAARs [9]; DHM 1 μM): 44.0 ± 4.1 pA
- mIPSC amplitude (pA) (GABAARs [9]; DHM 1 μM): 32.7 ± 2.6 pA
- mIPSC area (fC) (GABAARs [9]; DHM 1 μM): 715.7 ± 26.2 fC
- Decay time (GABAARs [9]; DHM 1 μM): 8.6 ± 0.5 ms
- Frequency (HZ) (GABAARs [9]; DHM 1 μM): 15.0 ± 0.6 HZ
- Rise time (GABAARs [9]; DHM 1 μM): 2.1 ± 0.2 ms
- EtOH-potentiated Itonic (GABAARs [9]; [17]): 21.0 ± 0.9 pA
- EtOH-potentiated mIPSCs (area) (GABAARs [9]; [17]): 0.70 ± 0.02 nC
- Itonic (pA) (GABAARs [9]; DHM 10 μM): 53.8 ± 2.9 pA
- mIPSC amplitude (pA) (GABAARs [9]; DHM 10 μM): 36.1 ± 2.4 pA
- mIPSC area (fC) (GABAARs [9]; DHM 10 μM): 965.7 ± 30.9 fC
- Decay time (GABAARs [9]; DHM 10 μM): 9.6 ± 0.8 ms
- Frequency (HZ) (GABAARs [9]; DHM 10 μM): 15.9 ± 1.0 HZ
- Rise time (GABAARs [9]; DHM 10 μM): 2.4 ± 0.3 ms
- Itonic (pA) (GABAARs [9]; DHM 30 μM): 54.0 ± 3.4 pA
- mIPSC amplitude (pA) (GABAARs [9]; DHM 30 μM): 35.8 ± 3.0 pA
- mIPSC area (fC) (GABAARs [9]; DHM 30 μM): 956.7 ± 22.6 fC
- Decay time (GABAARs [9]; DHM 30 μM): 10.1 ± 0.8 ms
- Frequency (HZ) (GABAARs [9]; DHM 30 μM): 16.1 ± 1.7 HZ
- Rise time (GABAARs [9]; DHM 30 μM): 2.4 ± 0.2 ms
- Effect on EtOH (60 mM) potentiation of Itonic and mIPSCs (GABAARs [9]; DHM 0.3 and 1.0 μM): concentration-dependently antagonized
- Acute EtOH-induced LORR (tolerance) (rats [10]; 48 hr withdrawal after DHM 1 mg/kg i.p. alone (D/W)): 65.6 ± 8.4 min
- Acute EtOH-induced LORR (tolerance) (rats [10]; [13]): 61.0 ± 3.8 min
- LORR duration (rats [10]; DHM 1 mg/kg 30 min prior to EtOH injection (D1+E)): 8.2 ± 4.1 min
- LORR duration (rats [10]; DHM 1 mg/kg co-injected i.p. with EtOH 4 g/kg (E4+D1)): 28.2 ± 4.0 min
- LORR induction (rats [10]; DHM 1 mg/kg i.p. alone (D1)): did not induce LORR
- LORR duration (rats [10]; DHM 3 mg/kg co-injected with EtOH 3 g/kg (E3+D3)): 2.7 ± 1.7 min
- LORR duration (rats [10]; DHM 100 mg/kg i.p. alone (D100)): 2.9 ± 1.3 min
- Effect on duration of EtOH-induced LORR (rats [10]; [18]): dose-dependently reduced LORR
- Effect on onset of EtOH-induced LORR (rats [10]; [18]): dose-dependently increased LORR onset
- LORR duration (rats [10]; DHM 300 mg/kg i.p. alone (D300)): 9.8 ± 4.3 min
- Remaining LORR after the 30 min time point (rats [10]; DHM injected 30 min after EtOH): 19 ± 1.0 min
- Effect on plasma [EtOH] ([11]; DHM 10 mg/kg with EtOH 3 g/kg, significant at 30 min, not at 60 min): slightly decreased [EtOH]
- Rise time of plasma [EtOH] ([11]; DHM 1, 10 mg/kg with EtOH 3 g/kg): the rise time of plasma [EtOH] was slowed at early time

SMILES: CCO [EtOH]
- Time in open and closed arms (EPM) (rats [1]; 48 hr withdrawal after EtOH 3 g/kg i.p. (E/W), vs V/W-group): significantly shorter time in open arms and longer time in closed arms
- PTZ-induced seizure duration (rats [2]; 48 hr withdrawal after EtOH 3 g/kg i.p. (E/W)): 6.5 ± 1.1 min
- EtOH consumption (rats [4]; beginning of the 4th week): 7.4 ± 0.6 g/kg/day
- EtOH consumption (rats [4]; end of the 2nd week): 3.9 ± 1.4 g/kg/day
- Total α4 protein level (GABAAR α4 subunit [5]; hippocampus 48 hr after EtOH 3 g/kg i.p. (E/W), compared to V/W-group): 184.0 ± 26.0%
- Increase in surface expression of GABAAR α4 protein (GABAAR α4 subunit [7]; cultured neurons 24 hrs after EtOH 60 mM, 30 min): 1.5 fold
- mIPSC area before acute EtOH (GABAARs [8]; DGCs of E/W-group rats (EtOH 5 g/kg gavage, 48 hr withdrawal)): 0.70 ± 0.03 nC
- Decay time (GABAARs [8]; [19]): 4.0 ± 0.4 ms
- Frequency (HZ) (GABAARs [8]; [19]): 11.4 ± 0.8 HZ
- Rise time (GABAARs [8]; [19]): 0.8 ± 0.3 ms
- Itonic (pA) (GABAARs [8]; [19]): 13.0 ± 1.0 pA
- mIPSC amplitude (pA) (GABAARs [8]; [19]): 38.3 ± 3.3 pA
- mIPSC area (fC) (GABAARs [8]; [19]): 698.0 ± 33.7 fC
- mIPSC area with acute EtOH (GABAARs [8]; bath EtOH 60 mM, DGCs of E/W-group rats (EtOH 5 g/kg gavage, 48 hr withdrawal)): 1.4 ± 0.04 nC
- Itonic with acute EtOH (GABAARs [8]; [20]): 62.1 ± 3.3 pA
- mIPSC area with acute EtOH (GABAARs [8]; [20]): 0.78 ± 0.05 nC
- Itonic (GABAARs [9]; [21]): 46.9 ± 1.4 pA and 44.8 ± 2.3 pA
- mIPSCs (area) (GABAARs [9]; [21]): 0.64 ± 0.02 nC and 0.78 ± 0.01 nC
- Acute EtOH-induced LORR (tolerance) (rats [10]; 48 hr withdrawal after single EtOH 3 g/kg i.p. (E/W)): 10.8 ± 3.8 min
- LORR duration (rats [10]; EtOH 3 g/kg i.p. alone (E3)): 73.6 ± 8.0 min and 69.0 ± 11.3 min
- LORR onset (rats [10]; EtOH 3 g/kg i.p. alone (E3)): 1.8 ± 0.2 min
- LORR duration (rats [10]; EtOH 4 g/kg i.p. alone (E4)): 112.8 ± 8.0 min
- Additional LORR after the 30 min time point (rats [10]; EtOH, saline injected 30 min after EtOH): 42 ± 9.1 min
- Plasma [EtOH] ([11]; 30 min after EtOH 3 g/kg i.p. (E3)): 334.9 ± 37.8 mg/dL
- Plasma [EtOH] ([11]; 60 min after EtOH 3 g/kg i.p. (E3)): 353.7 ± 35.4 mg/dL
- Plasma [EtOH] at sampling time points (min) 5 ([11]; EtOH 4 g/kg i.p. (E4)): 365.5 ± 7.7
- Plasma [EtOH] at sampling time points (min) 30 ([11]; EtOH 4 g/kg i.p. (E4)): 379.5 ± 5.9
- Plasma [EtOH] at sampling time points (min) 60 ([11]; EtOH 4 g/kg i.p. (E4)): 372.8 ± 5.4
- Plasma [EtOH] at sampling time points (min) 90 ([11]; EtOH 4 g/kg i.p. (E4)): 361.6 ± 8.2
- Plasma [EtOH] at sampling time points (min) 180 ([11]; EtOH 4 g/kg i.p. (E4)): 324.6 ± 21.4
- Plasma [EtOH] at sampling time points (min) 0 ([11]; EtOH 4 g/kg i.p. (E4), 0 = 0 to 3 min): 143.3 ± 23.4
